Data set [1] deals with T1, Alpha-synuclein (Homo sapiens, UniProt P37840). The data set is described as follows: Inhibition of recombinant alpha-synuclein (unknown origin) fibril formation assessed as thioflavin T fluorescence intensity at 100 uM measured every 20 mins by Thioflavin T fluorescence assay (reference value: 100 %).
Data set [2] has as its target T1, Alpha-synuclein. As to the kind of experiment: Inhibition of alpha-synuclein (unknown origin) oligomer formation assessed as reduction in cross linking at 100 uM preincubated with compound followed by Ru(BPY3) addition and measured after 1 sec light irradiation by coomassie blue staining based PICUP assay.
The target in data set [3] is T1, Alpha-synuclein. As to the kind of experiment: Inhibition of alpha-syn inclusion formation in human M17D cells expressing doxycyclin-inducible alpha-syn-S3K::YFP inclusion-prone fusion protein assessed as reduction in inclusions at 1.25 to 5 uM treated with compound starting from 24 hrs post plating followed by doxycyclin addition at 48 hrs and measured 96 hrs post plating by Incucyte-based analysis. It is filed as cell-based. The conditions noted are these: dose 1.25-5 µM, time 72.0 hrs.

Data set [4] can be described thus: Cytotoxicity against human M17D cells expressing doxycyclin-inducible alpha-syn-S3K::YFP inclusion-prone fusion protein assessed as reduction in cell confluency at 1.25 to 5 uM treated with compound starting from 24 hrs post plating followed by doxycyclin addition at 48 hrs and measured 96 hrs post plating by Incucyte-based analysis. Type of data set: toxicity. The following applies: 72 h, dose 1.25-5 µM.

SMILES strings stand for the structures. Calls of active or inactive are those of the source. The rule behind the calls is not given here.

Turning to `O=C(O)c1ccc(N2C(=O)/C(=C/c3ccc4ccccc4n3)SC2=S)cc1O`, the Flu intensity in data set [1] was greater than 100%. The inhibition result in data set [2] and in data set [3] was “inactive” in each case. The Activity entry in data set [4] is given as “Non-toxic”.

For the origin of these results see ChEMBL document CHEMBL6103543, “Exploring the rhodanine universe: Design and synthesis of fluorescent rhodanine-based derivatives as anti-fibrillar and anti-oligomer agents against α-synuclein and 2N4R tau” (Bioorg Med Chem, 2024).
